In PubChem BioAssay AID1918947 (Molecular Pharmacology Branch, DTP, NCI, 2023):
“And” between values parts separate entries of the source, which are not always exact repeats. Equal values may be shown once.

Test system: A498 complex spheroid viability
Experiment: Anticancer human tumor A498 cell line growth inhibition;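 further: spheroids exposed to agents for seven days before readout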;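 on viability, T/C: 100% = DMSO vehicle-treated spheroids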
Conditions: for viability, T/C: stronger effect = lower value
Source text: Multicellular complex tumor spheroid response to LSD1 Inhibitor Iadademstat in combination with a variety of drugs and investigational agents in selected tumor cell lines
The current study was undertaken to assess response to LSD1 inhibitors in combination with standard-of-care drugs and investigational agents in solid tumor complex spheroid models as well as in the K-562 leukemia. Complex spheroids include a stromal component modeled by human endothelial cells (HUVEC) and fibroblasts modeled by human mesenchymal stem cells (MSCs). The concentration ranges selected for each drug and investigational agent were based upon clinically achievable concentrations if the clinical Cmax of the agent was known.
Compounds. The drugs and investigational agents used in this study are listed on Table 1. All of the agents used, including staurosporine (NSC755774) and gemcitabine (NSC613327), were obtained from the Developmental Therapeutics Program, NCI. FDA-approved anticancer drugs are available from the NCI at http://dtp.nci.nih.gov/branches/dscb/oncology_drugset_explanation.html. Drugs and investigational agents were >95% pure by proton nuclear magnetic resonance (NMR) and liquid chromatography/mass spectrometry (LC/MS). Stock solutions were prepared at 400x in DMSO, stored at -70 degrees C, and diluted in fresh medium prior to their use. The final concentration of DMSO in cell culture wells never exceeded 0.25% (v/v). The FDA-approved anticancer drug set is available from the Developmental Therapeutics Program at https://dtp.cancer.gov/organization/dscb/obtaining/available_plates.htm. All drugs and investigational agents were tested over a range starting from a high concentration at or near the clinical Cmax and decreasing in half-log increments. If the clinical Cmax for an agent had not been determined, the highest concentration tested was 10 microM.
Cell Lines. The patient-derived cancer cell (PDC) lines: 292921-168-R-J2-PDC, K24384-001-R-PDC, and 521955-158-R2-J5-PDC pancreatic carcinomas, 556581-035-R-J1 ovarian carcinoma, 324938-238-R-J1-PDC, 855422-203-R-J1-PDC and 883617-216-R-J1-PDC urothelial bladder carcinomas, 743489-274-T-PDC renal cell carcinoma, 138582-R-J1 Merkel cell tumor, K60290-347-R-J1 and K57222-313-R-J1-PDC glioblastomas, 653999-131-R-J2-PDC, LG0703-F948-PDC, and 349418-098-R-PDC non-small cell lung carcinomas, 885512-296-R-J2-PDC, 171881-019-R-J1-PDC breast carcinomas and 186277-243-T-J2-PDC and 233499-124-R-J2-PDC colon carcinomas were obtained from the NCI Patient-Derived Models Repository (PDMR, https://pdmr.cancer.gov). The established cell lines NCI/ADR-RES (RRID:CVCL_14520 and OVCAR-5 (RRID:CVCL_1628) ovarian carcinomas, 786-O (RRID:CVCL_1051) and A498 (RRID:CVCL_A498) renal cell carcinoma, NCI-H211 (ATCC, cat. CRL-5824; RRID:CVCL_1529), NCI-H196 (ATCC, cat. CRL-5823, RRID:CVCL_1509), SW 1271 (ATCC, cat. CRL-2177, RRID:CVCL_1716) and NCI-H1876 (ATCC, cat. CRL-5902, RRID:CVCL_1503) small cell lung carcinomas, MDA-MB-231 (RRID:CVCL_0062) and MDA-MB-468 (RRID:CVCL_0419)breast carcinomas (10-12). Pooled donor human umbilical vein endothelial cells (HUVEC, Lonza, cat. CC-2519) and human mesenchymal stem cells (hMSC, Lonza, cat. PT-2501) were purchased from Lonza (Walkersville, MD).
Cell Culture. All cells were maintained in an incubator at 37 degrees C and 5% CO2 with 95% humidity. The PDC lines were cultured according to standard operating procedures established by the NCI PDMR (https://pdmr.cancer.gov). Briefly all PDCs were thawed and cultured in Matrigel-coated flasks prepared with a working solution of 1X Ham's F-12 nutrient mix, without supplementation (Invitrogen, Waltham, MA, cat. 11765054), 100 U/mL penicillin-streptomycin (Invitrogen, cat. 15140122), and 2.5% Matrigel (Corning Inc., Corning, NY, cat. 354248) for the first three passages. […]

[1] = curve of first compound, second compound 0.1 µM
[2] = curve of first compound, second compound 0.316 µM
[3] = curve of first compound, second compound 1 µM
[4] = curve of first compound, second compound 3.16 µM
[5] = curve of first compound, second compound 10 µM

Work on `Nc1ncn(C2CC(O)C(CO)S2)c(=O)n1` (centres undefined) + NC1CC1c1ccc(-c2cccc(O)c2)cc1 yielded an IC50 [1] of 255 nM, an IC50 [2] of 254 nM and an IC50 [3] of 257 nM. For the same molecule, the IC50 [4] was 236 nM, the IC50 [5] was 259 nM and the viability, T/C (second compound 0.1 µM, first compound 0.000949 µM) was 110%. For the same molecule, the viability, T/C (second compound 0.1 µM, first compound 0.003 µM) was 116%, the viability, T/C (second compound 0.1 µM, first compound 0.00949 µM) was 115% and the viability, T/C (second compound 0.1 µM, first compound 0.03 µM) was 95.4%. For the same molecule, the viability, T/C (second compound 0.1 µM, first compound 0.0949 µM) was 74.7%, the viability, T/C (second compound 0.1 µM, first compound 0.3 µM) was 45.9% and the viability, T/C (second compound 0.316 µM, first compound 0.000949 µM) was 114%. The viability, T/C (second compound 0.316 µM, first compound 0.003 µM) was 121%, the viability, T/C (second compound 0.316 µM, first compound 0.00949 µM) was 116% and the viability, T/C (second compound 0.316 µM, first compound 0.03 µM) was 104%. The viability, T/C (second compound 0.316 µM, first compound 0.0949 µM) was 81.9%, the viability, T/C (second compound 0.316 µM, first compound 0.3 µM) was 44.6% and the viability, T/C (second compound 1 µM, first compound 0.000949 µM) was 118%. The viability, T/C (second compound 1 µM, first compound 0.003 µM) was 123%, the viability, T/C (second compound 1 µM, first compound 0.00949 µM) was 119% and the viability, T/C (second compound 1 µM, first compound 0.03 µM) was 105%. It also gave a viability, T/C (second compound 1 µM, first compound 0.0949 µM) of 81.8%, a viability, T/C (second compound 1 µM, first compound 0.3 µM) of 44.8% and a viability, T/C (second compound 3.16 µM, first compound 0.000949 µM) of 114%. It also gave a viability, T/C (second compound 3.16 µM, first compound 0.003 µM) of 106%, a viability, T/C (second compound 3.16 µM, first compound 0.00949 µM) of 125% and a viability, T/C (second compound 3.16 µM, first compound 0.03 µM) of 109%. It also gave a viability, T/C (second compound 3.16 µM, first compound 0.0949 µM) of 78.7%, a viability, T/C (second compound 3.16 µM, first compound 0.3 µM) of 42.5% and a viability, T/C (second compound 10 µM, first compound 0.000949 µM) of 104%. It also gave a viability, T/C (second compound 10 µM, first compound 0.003 µM) of 110%, a viability, T/C (second compound 10 µM, first compound 0.00949 µM) of 118% and a viability, T/C (second compound 10 µM, first compound 0.03 µM) of 105%. It also gave a viability, T/C (second compound 10 µM, first compound 0.0949 µM) of 87.9% and a viability, T/C (second compound 10 µM, first compound 0.3 µM) of 44.5%.

In the case of `O=C(c1cc(Cc2n[nH]c(=O)c3ccccc23)ccc1F)N1CCN(C(=O)C2CC2)CC1`, the viability, T/C (compound 0.0316 µM) is reported as 99% and 102%, the viability, T/C (compound 0.1 µM) is reported as 108% and 105% and the viability, T/C (compound 0.316 µM) is reported as 96% and 101%. The viability, T/C (compound 1 µM) was 102% and 101%, the viability, T/C (compound 3.16 µM) was 103% and 93.4% and the viability, T/C (compound 10 µM) was 88.9% and 84.9%. The IC50 (curve of compound) was greater than 10000 nM.

`CC1COCCN1c1cc(-c2ccnn2C)c2ccnc(-c3ccn[nH]3)c2n1` (centres undefined) + NC1CC1c1ccc(-c2cccc(O)c2)cc1 was tested, and the IC50 [1] was 30.9 nM, the IC50 [2] was 29.8 nM and the IC50 [3] was 36.8 nM. For the same molecule, the IC50 [4] was 28.4 nM, the IC50 [5] was 31.5 nM and the viability, T/C (second compound 0.1 µM, first compound 0.00316 µM) was 104%. The viability, T/C (second compound 0.1 µM, first compound 0.01 µM) was 88.1%, the viability, T/C (second compound 0.1 µM, first compound 0.0316 µM) was 48.2% and the viability, T/C (second compound 0.1 µM, first compound 0.1 µM) was 23.6%. It also gave a viability, T/C (second compound 0.1 µM, first compound 0.316 µM) of 16.9%, a viability, T/C (second compound 0.1 µM, first compound 1 µM) of 11.8% and a viability, T/C (second compound 0.316 µM, first compound 0.00316 µM) of 108%. It also gave a viability, T/C (second compound 0.316 µM, first compound 0.01 µM) of 94%, a viability, T/C (second compound 0.316 µM, first compound 0.0316 µM) of 45.8% and a viability, T/C (second compound 0.316 µM, first compound 0.1 µM) of 25.3%. The viability, T/C (second compound 0.316 µM, first compound 0.316 µM) was 18.1%, the viability, T/C (second compound 0.316 µM, first compound 1 µM) was 13% and the viability, T/C (second compound 1 µM, first compound 0.00316 µM) was 105%. For the same molecule, the viability, T/C (second compound 1 µM, first compound 0.01 µM) was 87%, the viability, T/C (second compound 1 µM, first compound 0.0316 µM) was 55.5% and the viability, T/C (second compound 1 µM, first compound 0.1 µM) was 22.8%. It also gave a viability, T/C (second compound 1 µM, first compound 0.316 µM) of 17.7%, a viability, T/C (second compound 1 µM, first compound 1 µM) of 12.3% and a viability, T/C (second compound 3.16 µM, first compound 0.00316 µM) of 109%. The viability, T/C (second compound 3.16 µM, first compound 0.01 µM) was 85.5%, the viability, T/C (second compound 3.16 µM, first compound 0.0316 µM) was 45.8% and the viability, T/C (second compound 3.16 µM, first compound 0.1 µM) was 23.3%. It also gave a viability, T/C (second compound 3.16 µM, first compound 0.316 µM) of 15.6%, a viability, T/C (second compound 3.16 µM, first compound 1 µM) of 12.9% and a viability, T/C (second compound 10 µM, first compound 0.00316 µM) of 91.9%. It also gave a viability, T/C (second compound 10 µM, first compound 0.01 µM) of 80.3%, a viability, T/C (second compound 10 µM, first compound 0.0316 µM) of 49% and a viability, T/C (second compound 10 µM, first compound 0.1 µM) of 24.8%. The viability, T/C (second compound 10 µM, first compound 0.316 µM) was 16.3% and the viability, T/C (second compound 10 µM, first compound 1 µM) was 11.4%.

In the case of `COc1cc(C2c3cc4c(cc3C(OC3OC5COC(C)OC5C(O)C3O)C3COC(=O)C23)OCO4)cc(OC)c1O` (centres undefined), the viability, T/C (compound 0.00949 µM) is reported as 89.7% and 87%, the viability, T/C (compound 0.03 µM) is reported as 92.9% and 75.5% and the viability, T/C (compound 0.0949 µM) is reported as 82.8% and 70.3%. For the same molecule, the viability, T/C (compound 0.3 µM) was 78.1% and 74.6%, the viability, T/C (compound 0.949 µM) was 68.8% and 57% and the viability, T/C (compound 3 µM) was 56.8% and 48.7%. The IC50 (curve of compound) was > 3000 nM and 2640 nM.
